# Source: patent US10201585B2, “Methods for treatment of atherosclerosis” (Stealth Peptides International, Inc., priority 2012, dated 2019)
# Where “and” joins values, the source holds several entries; their conditions need not be identical. Equal values may be shown once. Entries after “also recorded” stand apart in the source; their conditions may differ.
# How the values were obtained:
# [1] = tested on: Apoprotein E deficient mice; assay: Plasma lipoprotein cholesterol by gel electrophoresis (Spife; HDL-C, LDL-C, VLDL-C); type: in vivo
# Description: (§1) Apoprotein E deficient mice (Jackson Laboratories, 600 Main Street, Bar Harbor, Me.) were used in this study. The mice were male, 7-8 weeks of age, and between 18-20 g in weight. An initial total cholesterol measurement was made on 30 mice, and the mice were grouped into two groups of 15 to match the total cholesterol measurements. Both groups were fed a “western diet” (40 kcal % butterfat, 0.15% [wt/wt] cholesterol, Harlan Teklad diet TD-88137). Starting at t=0, the control group of 15 mice received vehicle only (phosphate buffered saline at pH 7.4), while the test group of 15 mice received aromatic-cationic peptide reconstituted in phosphate buffered saline. Body weights of the mice were recorded weekly, and mortality checks were performed daily.
# (§2) The aromatic-cationic peptide D-Arg-2′6′-Dmt-Lys-Phe-NH2 (sterile lyophilized powder, reconstituted in phosphate buffered saline) was tested. For the 12-week study, test mice received a single, daily dose of the peptide, subcutaneously at 1 mg/kg. Control mice received a single daily dose of vehicle.
# (§3) Blood was collected every four weeks (orbital plexis) under isoflurane anesthesia (3%) and blood lipids were determined. Plasma lipid analysis was conducted for both groups at t=0, 4, 6, 8, and 12 weeks. Plasma lipid analysis using an autoanalyzer included total cholesterol (TC), triglycerides (Trigs), phospholipids (PL), free cholesterol (FC), and cholesterol ester (CE, by calculation). Gel electrophoresis was used to measure levels of high-density lipoprotein cholesterol (HDL-C), low-density lipoprotein cholesterol (LDL-C), and very low-density lipoprotein cholesterol (VLDL-C).
# [2] = tested on: fibroblast cells; assay: Coenzyme Q10 levels in fibroblasts treated with peptide; type: cell-based; conditions: 10 nM peptide for 16-24 hours or 5 days, DMEM, versus saline treated (FIG. 5)
# Experimental: Fibroblasts were treated with an aromatic-cationic peptide of the present disclosure, and levels of coenzyme Q10 were evaluated.
# Fibroblasts were culture by methods known in the art, and treated with the aromatic-cationic peptide D-Arg-2′6′-Dmt-Lys-Phe-NH2 as shown in Table 11 below. Data represents the average n=3-6.
# Coenzyme Q10 levels were evaluated by methods known in the art.
# [3] = tested on: Apoprotein E deficient mice; assay: En face analysis of atherosclerotic lesions, thoracic aorta (Sudan IV, % of aortic surface covered by lipid); type: in vivo; conditions: 12 weeks
# Description: as §1, §2
# Following the 12 week treatment, mice were euthanized within 48 hours after the last dose by CO2 asphyxiation and the vascular tree was perfused with 5 mL of phosphate buffered saline (pH 7.4). The aorta and aortic sinus were removed for examination. Thoracic aorta were isolated, trimmed of fat, and fixed in formalin for 48-72 hours before analysis. For en face analysis, aortas were laid out and pinned on black matrix for photography, and stained with Sudan IV. Vessels were imaged for surface involvement using a Nikon computerized image analysis system and the percent of the aortic surface area covered by lipid was calculated. Two determinations were done for each image (Quan 1 and Quan 2), and the average was computed. The data were then computed by group and statistically analyzed. Following staining and morphometric analysis, total lipids were extracted from the aortas using the Bligh-Dyer method. WAKO Diagnostics kits (WAKO Diagnostics, Inc., 1600 Bellwood Road Richmond, Va. 23237-1326) were then used to evaluate total cholesterol, free cholesterol, and cholesterol ester. Cholesterol levels were quantitate nad expressed relative to protein levels. Values are expressed as μg lipid per mg protein (see e.g., FIG. 1).
# [4] = tested on: Apoprotein E deficient mice; assay: Plasma lipid analysis using an autoanalyzer (TC, Trigs, PL, FC, CE by calculation); type: in vivo; parameters: Plasma Trigs (triglycerides) / Trigs (plasma triglycerides): unit not given beside the values; Plasma CE (cholesterol ester, by calculation) / Plasma PL (phospholipids): unit not given here
# Description: as §1, §2, §3
# [5] = Week 0 (baseline), group mean of 15 test mice, vehicle group 25
# [6] = Week 0 (start of treatment, baseline), individual mouse of peptide group (sample 16-30)
# [7] = Week 4, individual test mice (sample # 16-30), listed as aromatic-cationic peptide
# [8] = Week 8, individual test mice (sample # 16-30), listed as aromatic-cationic peptide
# [9] = Week 12, AVE of test mice 16-30
# [10] = Week 12, individual test mice (sample # 16-30), listed as aromatic-cationic peptide
# [11] = treated versus vehicle at 4, 8 and 12 week time points
# [12] = ApoE deficient mice, western diet, peptide 1 mg/kg s.c. daily, individual mouse (sample 16-30)
substance,measurement,setting,value
D-Arg-2′6′-Dmt-Lys-Phe-NH2,"Plasma HDL-C, AVE",[1]; [5],28 mg/dL
same,"Plasma VLDL-C, AVE",[1]; [5],26 mg/dL
same,"Plasma LDL-C, AVE","[1]; Week 0 (baseline), group mean of 15 test mice, vehicle group 362",368 mg/dL
same,Plasma HDL-C,[1]; [6],19 mg/dL and 34 mg/dL and 32 mg/dL and 37 mg/dL and 35 mg/dL and 21 mg/dL and 38 mg/dL and 41 mg/dL and 6 mg/dL and 31 mg/dL and 26 mg/dL and 39 mg/dL and 22 mg/dL and 29 mg/dL and 8 mg/dL
same,Plasma LDL-C,[1]; [6],258 mg/dL and 260 mg/dL and 307 mg/dL and 245 mg/dL and 268 mg/dL and 295 mg/dL and 304 mg/dL and 474 mg/dL and 287 mg/dL and 352 mg/dL and 380 mg/dL and 481 mg/dL and 410 mg/dL and 432 mg/dL and 773 mg/dL
same,Plasma VLDL-C,[1]; [6],25 mg/dL (2×) and 23 mg/dL and 37 mg/dL and 20 mg/dL (2×) and 19 mg/dL and 27 mg/dL and 36 mg/dL and 15 mg/dL and 26 mg/dL and 31 mg/dL and 24 mg/dL and 28 mg/dL and 29 mg/dL
same,"HDL-C, Spife (electrophoresis)","[1]; Week 4, AVE of test mice 16-30",25 mg/dL
same,"LDL-C, Spife (electrophoresis)","[1]; Week 4, AVE of test mice 16-30",940 mg/dL
same,"VLDL-C, Spife (electrophoresis)","[1]; Week 4, AVE of test mice 16-30",33 mg/dL
same,"HDL-C, Spife (electrophoresis)",[1]; [7],18 mg/dL and 20 mg/dL (3×) and 0 mg/dL and 13 mg/dL and 7 mg/dL and 23 mg/dL and 32 mg/dL (3×) and 15 mg/dL and 45 mg/dL and 44 mg/dL and 49 mg/dL
same,"LDL-C, Spife (electrophoresis)",[1]; [7],745 mg/dL and 866 mg/dL and 918 mg/dL and 1120 mg/dL and 982 mg/dL and 648 mg/dL and 893 mg/dL and 975 mg/dL and 770 mg/dL and 766 mg/dL and 966 mg/dL and 1147 mg/dL and 874 mg/dL and 1171 mg/dL and 1254 mg/dL
same,"VLDL-C, Spife (electrophoresis)",[1]; [7],35 mg/dL (2×) and 37 mg/dL (2×) and 19 mg/dL and 44 mg/dL (2×) and 18 mg/dL and 23 mg/dL and 39 mg/dL and 41 mg/dL and 28 mg/dL and 31 mg/dL and 30 mg/dL and 32 mg/dL
same,"HDL-C, Spife (electrophoresis)","[1]; Week 8, AVE of test mice 16-30",32 mg/dL
same,"LDL-C, Spife (electrophoresis)","[1]; Week 8, AVE of test mice 16-30",1166 mg/dL
same,"VLDL-C, Spife (electrophoresis)","[1]; Week 8, AVE of test mice 16-30",84 mg/dL
same,"HDL-C, Spife (electrophoresis)",[1]; [8],42 mg/dL and 34 mg/dL and 27 mg/dL and 33 mg/dL and 19 mg/dL (2×) and 8 mg/dL and 45 mg/dL and 16 mg/dL and 32 mg/dL and 41 mg/dL (2×) and 25 mg/dL and 43 mg/dL and 57 mg/dL
same,"LDL-C, Spife (electrophoresis)",[1]; [8],1119 mg/dL and 897 mg/dL and 1392 mg/dL and 1071 mg/dL and 1415 mg/dL and 901 mg/dL and 875 mg/dL and 1378 mg/dL and 922 mg/dL and 856 mg/dL and 1317 mg/dL and 1320 mg/dL and 1025 mg/dL and 1382 mg/dL and 1621 mg/dL
same,"VLDL-C, Spife (electrophoresis)",[1]; [8],101 mg/dL and 73 mg/dL and 86 mg/dL and 79 mg/dL (2×) and 112 mg/dL and 34 mg/dL and 88 mg/dL and 69 mg/dL and 59 mg/dL and 93 mg/dL and 74 mg/dL and 80 mg/dL and 109 mg/dL and 119 mg/dL
same,"HDL-C, Spife (electrophoresis)",[1]; [9],21 mg/dL
same,"LDL-C, Spife (electrophoresis)",[1]; [9],939 mg/dL
same,"VLDL-C, Spife (electrophoresis)",[1]; [9],44 mg/dL
same,"HDL-C, Spife (electrophoresis)",[1]; [10],38 mg/dL and 20 mg/dL (2×) and 10 mg/dL and 41 mg/dL and 21 mg/dL and 5 mg/dL and 31 mg/dL (2×) and 2 mg/dL (2×) and 40 mg/dL and 28 mg/dL and 1 mg/dL and 23 mg/dL
same,"LDL-C, Spife (electrophoresis)",[1]; [10],821 mg/dL and 485 mg/dL and 854 mg/dL and 852 mg/dL and 1328 mg/dL and 693 mg/dL and 611 mg/dL and 692 mg/dL and 962 mg/dL and 896 mg/dL and 1275 mg/dL and 1218 mg/dL and 505 mg/dL and 1203 mg/dL and 1688 mg/dL
same,"VLDL-C, Spife (electrophoresis)",[1]; [10],39 mg/dL and 35 mg/dL and 21 mg/dL (2×) and 43 mg/dL and 71 mg/dL and 32 mg/dL and 33 mg/dL and 26 mg/dL and 63 mg/dL and 76 mg/dL and 36 mg/dL and 30 mg/dL and 83 mg/dL and 46 mg/dL
same,"Plasma LDL-C, in words",[1]; [11],reduces
same,"Plasma VLDL-C, in words",[1]; [11],reduces
same,Coenzyme Q10 levels in fibroblast cells,[2],increased
same,Ave. % of Lesion (average of Quan 1 and Quan 2),[3]; [12],2.615% and 0.892% and 9.027% and 3.019% and 7.009% and 4.833% and 1.996% and 1.205% and 9.948% and 2.763% and 6.814% and 4.734% and 0.834% and 11.239% and 12.990%
same,Quan 1 (first determination of % of the aortic surface covered by lipid),[3]; [12],10.000% and 4.700%
same,Quan 2 (second determination of % of the aortic surface covered by lipid),[3]; [12],0.870%
same,"Ave (average % of the surface of the aortas showing lesions, group)","[3]; group mean of 15 test mice, peptide 1 mg/kg s.c. daily, vehicle group 7.189",5.328%
same,"Atherosclerotic lesions in the aorta (% lesion area), in words","[3]; treated versus vehicle, 1 mg/kg s.c. daily (Table 7, FIG. 1A), 1 mg/kg",reduces; also recorded: lower
same,"Plasma FC (free cholesterol), AVE","[4]; Week 0 (baseline), group mean of 15 test mice, vehicle group 136",142
same,"Plasma Trigs (triglycerides), AVE","[4]; Week 0 (baseline), group mean of 15 test mice, vehicle group 141",140
same,"Plasma CE (cholesterol ester, by calculation), AVE","[4]; Week 0 (baseline), group mean of 15 test mice, vehicle group 275",280
same,"Plasma PL (phospholipids), AVE","[4]; Week 0 (baseline), group mean of 15 test mice, vehicle group 297",309
same,"Plasma TC (total cholesterol), AVE","[4]; Week 0 (baseline), group mean of 15 test mice, vehicle group 411",422
same,"Plasma CE (cholesterol ester, by calculation)",[4]; [6],183 and 197 and 242 and 192 and 207 and 204 and 240 and 366 and 196 and 270 and 297 and 382 and 306 and 331 and 588
same,Plasma FC (free cholesterol),[4]; [6],119 and 121 and 134 (2×) and 110 and 116 and 131 and 129 and 184 and 113 and 139 and 170 and 151 and 159 and 220
same,Plasma PL (phospholipids),[4]; [6],267 (3×) and 308 and 255 and 306 and 298 and 369 and 238 and 320 and 313 and 332 and 343 and 338 and 413
same,Plasma TC (total cholesterol),[4]; [6],302 (2×) and 318 and 376 and 323 and 335 and 369 and 550 and 309 and 409 and 431 and 552 and 457 and 490 and 808
same,Plasma Trigs (triglycerides),[4]; [6],75 and 88 (3×) and 117 and 96 and 71 and 138 and 167 and 136 and 151 and 191 and 188 and 154 and 353
same,CE (plasma cholesterol ester),"[4]; Week 4, AVE of test mice 16-30",610
